Source: the NIST ThermoML archive (doi:10.1016/j.fluid.2018.09.024)
± gives the expanded uncertainty stated by the source.

test: activity coefficient (dimensionless); of the first substance listed, at infinite dilution; xn = mol fraction of the nth substance listed; settings: 368.15 K; 101.33 kPa; Liquid; Chromatography; x1 = 0

Row | SMILES | activity coefficient
1 | CC1CCCCC1 [methylcyclohexane] + CCCCCCCCCCCC[N+](C)(C)CCOc1ccccc1.N#C[N-]C#N | 3.9 ± 0.27
2 | CC1CCCCC1 [methylcyclohexane] + CCCCCCCCCCCC[N+](C)(C)CCOc1ccccc1.O=S(=O)([N-]S(=O)(=O)C(F)(F)F)C(F)(F)F | 2.55 ± 0.17
3 | CCCCCCCCC [nonane] + CCCCCCCCCCCC[N+](C)(C)CCOc1ccccc1.N#C[N-]C#N | 8.21 ± 0.56
4 | CCCCCCCCC [nonane] + CCCCCCCCCCCC[N+](C)(C)CCOc1ccccc1.O=S(=O)([N-]S(=O)(=O)C(F)(F)F)C(F)(F)F | 5.18 ± 0.35
5 | C=CCCCCCC [oct-1-ene] + CCCCCCCCCCCC[N+](C)(C)CCOc1ccccc1.N#C[N-]C#N | 5.29 ± 0.36
6 | C=CCCCCCC [oct-1-ene] + CCCCCCCCCCCC[N+](C)(C)CCOc1ccccc1.O=S(=O)([N-]S(=O)(=O)C(F)(F)F)C(F)(F)F | 3.39 ± 0.23
7 | CCCCCCCC [octane] + CCCCCCCCCCCC[N+](C)(C)CCOc1ccccc1.N#C[N-]C#N | 7.07 ± 0.48
8 | CCCCCCCC [octane] + CCCCCCCCCCCC[N+](C)(C)CCOc1ccccc1.O=S(=O)([N-]S(=O)(=O)C(F)(F)F)C(F)(F)F | 4.5 ± 0.31
9 | CCCCCO [pentan-1-ol] + CCCCCCCCCCCC[N+](C)(C)CCOc1ccccc1.N#C[N-]C#N | 0.53 ± 0.039
10 | CCCCCO [pentan-1-ol] + CCCCCCCCCCCC[N+](C)(C)CCOc1ccccc1.O=S(=O)([N-]S(=O)(=O)C(F)(F)F)C(F)(F)F | 1.19 ± 0.08
11 | CCCC(C)=O [pentan-2-one] + CCCCCCCCCCCC[N+](C)(C)CCOc1ccccc1.N#C[N-]C#N | 1.04 ± 0.07
12 | CCCC(C)=O [pentan-2-one] + CCCCCCCCCCCC[N+](C)(C)CCOc1ccccc1.O=S(=O)([N-]S(=O)(=O)C(F)(F)F)C(F)(F)F | 0.503 ± 0.038
13 | CCC(=O)CC [pentan-3-one] + CCCCCCCCCCCC[N+](C)(C)CCOc1ccccc1.N#C[N-]C#N | 1.05 ± 0.07
14 | CCC(=O)CC [pentan-3-one] + CCCCCCCCCCCC[N+](C)(C)CCOc1ccccc1.O=S(=O)([N-]S(=O)(=O)C(F)(F)F)C(F)(F)F | 0.511 ± 0.038
15 | CCCO [propan-1-ol] + CCCCCCCCCCCC[N+](C)(C)CCOc1ccccc1.N#C[N-]C#N | 0.463 ± 0.036
16 | CCCO [propan-1-ol] + CCCCCCCCCCCC[N+](C)(C)CCOc1ccccc1.O=S(=O)([N-]S(=O)(=O)C(F)(F)F)C(F)(F)F | 1.11 ± 0.07

Row | SMILES | activity coefficient
17 | CC(C)O [propan-2-ol] + CCCCCCCCCCCC[N+](C)(C)CCOc1ccccc1.N#C[N-]C#N | 0.528 ± 0.039
18 | CC(C)O [propan-2-ol] + CCCCCCCCCCCC[N+](C)(C)CCOc1ccccc1.O=S(=O)([N-]S(=O)(=O)C(F)(F)F)C(F)(F)F | 1.08 ± 0.07
19 | CCCc1ccccc1 [propylbenzene] + CCCCCCCCCCCC[N+](C)(C)CCOc1ccccc1.N#C[N-]C#N | 1.96 ± 0.13
20 | CCCc1ccccc1 [propylbenzene] + CCCCCCCCCCCC[N+](C)(C)CCOc1ccccc1.O=S(=O)([N-]S(=O)(=O)C(F)(F)F)C(F)(F)F | 1.37 ± 0.09
21 | c1ccncc1 [pyridine] + CCCCCCCCCCCC[N+](C)(C)CCOc1ccccc1.N#C[N-]C#N | 0.656 ± 0.045
22 | c1ccncc1 [pyridine] + CCCCCCCCCCCC[N+](C)(C)CCOc1ccccc1.O=S(=O)([N-]S(=O)(=O)C(F)(F)F)C(F)(F)F | 0.363 ± 0.033
23 | C=Cc1ccccc1 [styrene] + CCCCCCCCCCCC[N+](C)(C)CCOc1ccccc1.N#C[N-]C#N | 1.06 ± 0.07
24 | C=Cc1ccccc1 [styrene] + CCCCCCCCCCCC[N+](C)(C)CCOc1ccccc1.O=S(=O)([N-]S(=O)(=O)C(F)(F)F)C(F)(F)F | 0.83 ± 0.05
25 | C1CCOC1 [tetrahydrofuran] + CCCCCCCCCCCC[N+](C)(C)CCOc1ccccc1.N#C[N-]C#N | 0.791 ± 0.051
26 | C1CCOC1 [tetrahydrofuran] + CCCCCCCCCCCC[N+](C)(C)CCOc1ccccc1.O=S(=O)([N-]S(=O)(=O)C(F)(F)F)C(F)(F)F | 0.502 ± 0.038
27 | c1ccsc1 [thiophene] + CCCCCCCCCCCC[N+](C)(C)CCOc1ccccc1.N#C[N-]C#N | 0.749 ± 0.049
28 | c1ccsc1 [thiophene] + CCCCCCCCCCCC[N+](C)(C)CCOc1ccccc1.O=S(=O)([N-]S(=O)(=O)C(F)(F)F)C(F)(F)F | 0.68 ± 0.046
29 | Cc1ccccc1 [toluene] + CCCCCCCCCCCC[N+](C)(C)CCOc1ccccc1.N#C[N-]C#N | 1.24 ± 0.08
30 | Cc1ccccc1 [toluene] + CCCCCCCCCCCC[N+](C)(C)CCOc1ccccc1.O=S(=O)([N-]S(=O)(=O)C(F)(F)F)C(F)(F)F | 0.893 ± 0.057
31 | C=COC(C)=O [vinyl acetate] + CCCCCCCCCCCC[N+](C)(C)CCOc1ccccc1.N#C[N-]C#N | 1.38 ± 0.09

same assay, conditions: 378.15 K; 101.33 kPa; Liquid; Chromatography; x1 = 0

Row | SMILES | activity coefficient
32 | CC1CCCCC1 [methylcyclohexane] + CCCCCCCCCCCC[N+](C)(C)CCOc1ccccc1.N#C[N-]C#N | 3.95 ± 0.27
33 | CCCCCCCCC [nonane] + CCCCCCCCCCCC[N+](C)(C)CCOc1ccccc1.N#C[N-]C#N | 8.34 ± 0.57
34 | C=CCCCCCC [oct-1-ene] + CCCCCCCCCCCC[N+](C)(C)CCOc1ccccc1.N#C[N-]C#N | 5.38 ± 0.37
35 | CCCCCCCC [octane] + CCCCCCCCCCCC[N+](C)(C)CCOc1ccccc1.N#C[N-]C#N | 7.15 ± 0.49
36 | CCCCCO [pentan-1-ol] + CCCCCCCCCCCC[N+](C)(C)CCOc1ccccc1.N#C[N-]C#N | 0.542 ± 0.04
37 | CCCC(C)=O [pentan-2-one] + CCCCCCCCCCCC[N+](C)(C)CCOc1ccccc1.N#C[N-]C#N | 1.07 ± 0.07
38 | CCC(=O)CC [pentan-3-one] + CCCCCCCCCCCC[N+](C)(C)CCOc1ccccc1.N#C[N-]C#N | 1.08 ± 0.07
39 | CCCO [propan-1-ol] + CCCCCCCCCCCC[N+](C)(C)CCOc1ccccc1.N#C[N-]C#N | 0.471 ± 0.037
40 | CC(C)O [propan-2-ol] + CCCCCCCCCCCC[N+](C)(C)CCOc1ccccc1.N#C[N-]C#N | 0.535 ± 0.039
41 | CCCc1ccccc1 [propylbenzene] + CCCCCCCCCCCC[N+](C)(C)CCOc1ccccc1.N#C[N-]C#N | 2.01 ± 0.14
42 | c1ccncc1 [pyridine] + CCCCCCCCCCCC[N+](C)(C)CCOc1ccccc1.N#C[N-]C#N | 0.673 ± 0.046
43 | C=Cc1ccccc1 [styrene] + CCCCCCCCCCCC[N+](C)(C)CCOc1ccccc1.N#C[N-]C#N | 1.1 ± 0.07
44 | C1CCOC1 [tetrahydrofuran] + CCCCCCCCCCCC[N+](C)(C)CCOc1ccccc1.N#C[N-]C#N | 0.81 ± 0.052
45 | c1ccsc1 [thiophene] + CCCCCCCCCCCC[N+](C)(C)CCOc1ccccc1.N#C[N-]C#N | 0.773 ± 0.051
46 | Cc1ccccc1 [toluene] + CCCCCCCCCCCC[N+](C)(C)CCOc1ccccc1.N#C[N-]C#N | 1.28 ± 0.08
47 | C=COC(C)=O [vinyl acetate] + CCCCCCCCCCCC[N+](C)(C)CCOc1ccccc1.N#C[N-]C#N | 1.41 ± 0.09
